Results reported in patent US20050267156A1, “Broadspectrum 2-amino-benzothiazole sulfonamide hiv protease inhibitors” (Tibotec Pharmaceuticals Ltd., priority 2002, published 2005).
Where two headings read alike, the source gives them in different places.

Assays:
HIV-1 strain LAI = test: Cellular anti-HIV assay (MT4/MTT), wild type; assay type: cell-based; details: Human immunodeficiency virus 1; wild type HIV-1 strain LAI, MT4 cells; read-out: WT (pEC50) (converted)
[1] = Toxicity on mock-infected cells (MTT); assay type: cell-based; details: human
[2] = system: mutant HIV protease viruses; test: Panel of more than 20 mutant proteases; assay type: cell-based
mutant HIV strain A = test: microbe, parasite or virus in culture; assay type: cell-based; details: for EC50: Human immunodeficiency virus 1, MT4, read-out: pEC50 Strain A, mutant HIV strain A, MT4 cells (converted)
mutant HIV strain D = test: microbe, parasite or virus in culture; assay type: cell-based; details: for EC50: Human immunodeficiency virus 1, MT4, read-out: pEC50 Strain D, mutant HIV strain D, MT4 cells (converted)
mutant HIV strain E = test: microbe, parasite or virus in culture; assay type: cell-based; details: for EC50: Human immunodeficiency virus 1, MT4, read-out: pEC50 Strain E, mutant HIV strain E, MT4 cells (converted)
mutant HIV strain C = test: microbe, parasite or virus in culture; assay type: cell-based; details: for EC50: Human immunodeficiency virus 1, MT4, read-out: pEC50 Strain C, mutant HIV strain C, MT4 cells (converted)
mutant HIV strain B = test: microbe, parasite or virus in culture; assay type: cell-based
Pharmacokinetics in rats = assay type: in vivo, Whistar rats; details: Whistar, rat, blood, 10 mpk, read-out: Cmax
Description: (§1) The pharmacokinetic properties of some compounds of formula (I) were tested on rats and dogs. The compounds were evaluated in Whistar rats, source Iffa Credo, weighing approximately 350 g. Before dosing the animals were fasted overnight (approximately 12 h fasting period). The compounds were dissolved in DMSO or PEG 400. The results represented in the table concern the results from the oral or intra-peritoneal dosing of the compounds. Blood was sampled at 30 min, 1 h, 2 h, 3 h, no pre-dose sample was taken. The amount of the compound in the biological sample was determined using LC-MS. In the table below “or” means oral dosing, “ip” means intraperitoneal dosing, “mpk” means mg per kilogram.

Pharmacokinetics in dogs = assay type: in vivo; details: dog, blood, po, 10 mpk, or, read-out: Cmax
Description: as §1

mutant HIV strain F = test: microbe, parasite or virus in culture; assay type: cell-based; details: Human immunodeficiency virus 1, MT4, read-out: pEC50 Strain F, mutant HIV strain F, MT4 cells (converted)
[3] = FR=EC50 (mutant strain)/EC50 (HIV-1 strain LAI)

## CC(C)CN(C[C@@H](O)[C@H](Cc1ccccc1)NC(=O)OC1COC2OCCC12)S(=O)(=O)c1ccc2nc(N)sc2c1 (stereo partly drawn) [Compound 1, {(1S,2R)-3-[(2-amino-benzothiazole-6-sulfonyl)-isobutyl-amino]-1-benzyl-2-hydroxypropyl}-carbamic acid hexahydro-furo[2,3-b]furan-3-yl ester]
HIV-1 strain LAI
  EC50: 5.5 nM
[1]
  CC50 at 5 days: 69200 nM
[2]; Human immunodeficiency virus 1, read-out: pIC50 for the most resistant mutant (converted)
  IC50: 7.59 nM
[2]; Human immunodeficiency virus 1, read-out: pIC50 for the most sensitive mutant (converted)
  IC50: 0.741 nM
Mutant HIV strain A; [3]
  fold resistance Strain A: 0.5
Mutant HIV strain A
  EC50: 2.95 nM
Mutant HIV strain D; [3]
  fold resistance Strain D: 0.4
Mutant HIV strain D
  EC50: 2.24 nM
Mutant HIV strain E; [3]
  fold resistance Strain E: 0.6
Mutant HIV strain E
  EC50: 3.09 nM
Mutant HIV strain C; [3]
  fold resistance Strain C: 0.8
Mutant HIV strain C
  EC50: 4.17 nM
Mutant HIV strain B; [3]
  fold resistance Strain B: 0.7
Mutant HIV strain B; Human immunodeficiency virus 1, MT4, read-out: pEC50 Strain B, mutant HIV strain B, MT4 cells (converted)
  EC50: 3.63 nM

## CNc1nc2ccc(S(=O)(=O)N(CC(C)C)C[C@@H](O)[C@H](Cc3ccccc3)NC(=O)OCc3cncs3)cc2s1 [Compound 18, {(1S,2R)-1-benzyl-2-hydroxy-3-[isobutyl-(2-methylamino-benzothiazole-6-sulfonyl)-amino]-propyl}-carbamic acid thiazol-5-ylmethyl ester]
HIV-1 strain LAI
  EC50: 1.91 nM
Pharmacokinetics in rats; ip, ip, DMSO, results normalized to 10 mpk
  Cmax: 1140 ng/mL
Pharmacokinetics in rats; po, or, DMSO, results normalized to 10 mpk
  Cmax: 396 ng/mL
Pharmacokinetics in rats; po, or, PEG400, results normalized to 10 mpk
  Cmax: 668 ng/mL
[1]
  CC50 at 5 days: 85100 nM
Pharmacokinetics in dogs; DMSO, results normalized to 10 mpk
  Cmax: 15 ng/mL
Pharmacokinetics in dogs; PEG400, results normalized to 10 mpk
  Cmax: 42 ng/mL
Mutant HIV strain A
  EC50: 30.9 nM
Mutant HIV strain D
  EC50: 21.4 nM
Mutant HIV strain F
  EC50: 148 nM
Mutant HIV strain E
  EC50: 9.12 nM
Mutant HIV strain C
  EC50: 7.41 nM
Mutant HIV strain B; mutant HIV strain B, MT4 cells
  pEC50 Strain B: 8.21
